Counter-ions that a name gives are not always drawn.

What is called MIC is the lowest concentration that inhibits growth of the organism. High values mean a need for much substance, low ones inhibition by little substance.

What all share (type): cell-based
Series [1] relates to Candida albicans ATCC 90028 = CCM 8161. Briefly: MIC, microdilution method. Conditions: Candida albicans.
Series [2] deals with Staphylococcus epidermidis CCM 7221. The series can be described thus: MIC, microdilution method. Conditions: Staphylococcus epidermidis, CCM7221. As to the method:
(§1) Disposable microtiter plates are used for testing. Samples are dissolved in infusion medium from brain and heart (BHI, HiMedia Laboraties Pvt. Ltd., Czech Republic) and Mueller-Hinton broth (HiMedia Laboraties, see above) to a final concentration ranging from 200 μg/ml to 1.5625 μg/ml. Plates are inoculated with a standard amount of test bacteria—the density of the inoculum in the well corresponds to 10^5-6 CFU/ml (colony forming units/ml, i.e. the number of viable bacterial cells/ml). MIC values are read after 24/48 hours of incubation at 37° C. as the minimum inhibitory concentration of the test substance at which bacterial growth is inhibited. The minimum bactericidal concentration (MBC) is characterized as the minimum concentration of the sample required to achieve irreversible inhibition, i.e. to kill the bacteria after a defined incubation period. MBC is determined by the inoculation method. Using an applicator, 10 μl from the well of a microtiter plate with a defined concentration of the test substance is taken to inoculate the surface of blood agar (Trios, Czech Republic). MBC is determined as the lowest concentration that inhibits the visible growth of the bacterium used on agar.
In general terms: Broth dilution looks for growth in wells or tubes with falling amounts of substance.

Series [3] concerns Staphylococcus aureus 4591. Briefly: MIC, microdilution method. Conditions: Staphylococcus aureus, 4591. As to the method: as §1
The test system of series [4] is Enterobacter kobei 3683. Briefly: MIC, microdilution method. Conditions: Enterobacter kobei, 3683. Here is the method: as §1
In series [5] the test system is Enterococcus faecium 419/ANA. The series can be described thus: MIC, microdilution method. Conditions: Enterococcus faecium, 419/ANA. As to the method: as §1
The subject of series [6] is Pseudomonas aeruginosa R. The series can be described thus: MIC, microdilution method. Conditions: Pseudomonas aeruginosa. As to the method:
as §1

Series [7] has as its system Pseudomonas aeruginosa ATCC 27853 = CCM 3955. The series can be described thus: MIC, microdilution method. Conditions: Pseudomonas aeruginosa. As to the method:
as §1

The subject of series [8] is Escherichia coli CE5556. Briefly: MIC, microdilution method. Conditions: Escherichia coli, CE5556. As to the method: as §1
For series [9], the system named is Enterococcus faecalis ATCC 29212 = CCM 4224. The series can be described thus: MIC, microdilution method. Conditions: Enterococcus faecalis. As to the method:
as §1

The test system of series [10] is Staphylococcus aureus ATCC 29213 = CCM 4223. Briefly: MIC, microdilution method. Conditions: Staphylococcus aureus. As to the method:
as §1

Series [11] deals with Escherichia coli ATCC 25922 = CCM 3954. Briefly: MIC, microdilution method. Conditions: Escherichia coli. Here is the method: as §1
In series [12] the test system is erythrocytes. The series can be described thus: Haemolytic activity of soluble samples. Here is the method: Blood from three donors is mixed and centrifuged (10 min, 1000 g, 4° C.). The erythrocytes obtained are washed three times with NaCl solution (150 mmol·l^−1) and then used for experiments. Sample stock solutions are prepared in DMSO so that the final concentration of DMSO in NaCl is 0.5% (v/v). NaCl solution with the appropriate volume of DMSO serves as the negative control. 1% Triton-X100 is the positive control. The erythrocytes obtained are diluted to 2% with NaCl solution and pipetted into Eppendorf tubes (250 μl) with constant stirring. Samples and positive and negative controls are added to the erythrocytes prepared in this way and incubated (3 hours, 37° C.). The tubes are stirred during the incubation. After centrifugation (5 min, 1000 g), haemolytic activity is monitored by haemoglobin determination. The HC50 value is calculated from the measured absorbance values. The test is performed in triplets in three independent replicates. Iron Fe^2+ in haemoglobin is oxidized with potassium ferricyanide to iron Fe^3+ in methaemoglobin, which produces stable cyanomethaemoglobin with potassium cyanide, the concentration of which is determined spectrophotometrically. After the incubation of the erythrocytes with the substances, the cells are centrifuged (5 min, 1000 g), then Drabkin's solution (200 μl) is added to the supernatant (40 μl) and after incubation (10 min), the absorbance at 540 nm is measured.

Take `CCCCCCOP(=O)(CCN(CCN)CCN)OCCCCCCCCOP(=O)(CCN(CCN)CCN)OCCCCCC` (stereo not drawn) [Example 55, Dihexyl octane-1,8-diyl bis((2-(bis(2-aminoethyl)amino)ethyl)phosphonate) hexahydrochloride]: the MIC in series [1] was 32 µg/mL; in [2], 2 µg/mL; in [3], 4 µg/mL; in series [4], > 128 µg/mL; in series [5], > 128 µg/mL; in [6], 64 µg/mL. In addition, the MIC is 64 µg/mL in series [7]; > 128 µg/mL in series [8]; 128 µg/mL in series [9]; 2 µg/mL in series [10]; > 128 µg/mL in series [11]. For the same molecule, the “HC50 ± SD” value in series [12] is given as >100.

Take `CC(C)COP(=O)(CCN(CCCN)CCCN)OCCCCCCCCCCCCOP(=O)(CCN(CCCN)CCCN)OCC(C)C` (stereo not drawn) [Example 46, Dodecane-1,12-diyl diisobutyl bis((2-(bis(3-aminopropyl)amino)ethyl)-phosphonate) hexahydrochloride]: the MIC in series [1] was 64 µg/mL; in series [2], 1 µg/mL; in [3] it was 4 µg/mL; in series [4] it was > 128 µg/mL; in [5] it was > 128 µg/mL; in series [6], 16 µg/mL. The MIC in [7] is 32 µg/mL; in series [8], > 128 µg/mL; in [9], 32 µg/mL; in series [10] it was 4 µg/mL; in series [11], 128 µg/mL. In series [12], the “HC50 ± SD” value was >100.

In the case of `CCCCCOP(=O)(CCN(CCCN)CCCN)OCCCCCCCCCCCCOP(=O)(CCN(CCCN)CCCN)OCCCCC` (stereo not drawn) [Example 48, Dodecane-1,12-diyl dipentyl bis((2-(bis(3-aminopropyl)amino)ethyl)-phosphonate) hexahydrochloride], the minimal inhibitory concentration (MIC) in series [1] came to 2 µg/mL; in series [2] it was 0.5 µg/mL; in series [3], 1 µg/mL; in [4], 1 µg/mL; in [5], 1 µg/mL; in [6], 2 µg/mL. The MIC in [7] stood at 2 µg/mL; in series [8], 1 µg/mL; in series [9], 1 µg/mL; in series [10], 1 µg/mL; in [11], 1 µg/mL. In [12], the “HC50 ± SD” value stood at 4.
